Laboratory results from PMC5101207, “The Oxidosqualene Cyclase from the Oomycete Saprolegnia parasitica Synthesizes Lanosterol as a Single Product” (Frontiers in Microbiology, 2016).

Target: T1, SpLASA (Saprolegnia parasitica, UniProt A0A067BWL7)
T1 construct: gene SPRG_11783; full length, 805 residues (2415 bp amplicon from mycelium cDNA), C-terminal His6 tag (pET-DEST42), E. coli BL21 (DE3), about 91 kDa; not the truncated paralogue SpLASB (SPRG_17895, 472 residues)
T1 sequence (A0A067BWL7 1-805): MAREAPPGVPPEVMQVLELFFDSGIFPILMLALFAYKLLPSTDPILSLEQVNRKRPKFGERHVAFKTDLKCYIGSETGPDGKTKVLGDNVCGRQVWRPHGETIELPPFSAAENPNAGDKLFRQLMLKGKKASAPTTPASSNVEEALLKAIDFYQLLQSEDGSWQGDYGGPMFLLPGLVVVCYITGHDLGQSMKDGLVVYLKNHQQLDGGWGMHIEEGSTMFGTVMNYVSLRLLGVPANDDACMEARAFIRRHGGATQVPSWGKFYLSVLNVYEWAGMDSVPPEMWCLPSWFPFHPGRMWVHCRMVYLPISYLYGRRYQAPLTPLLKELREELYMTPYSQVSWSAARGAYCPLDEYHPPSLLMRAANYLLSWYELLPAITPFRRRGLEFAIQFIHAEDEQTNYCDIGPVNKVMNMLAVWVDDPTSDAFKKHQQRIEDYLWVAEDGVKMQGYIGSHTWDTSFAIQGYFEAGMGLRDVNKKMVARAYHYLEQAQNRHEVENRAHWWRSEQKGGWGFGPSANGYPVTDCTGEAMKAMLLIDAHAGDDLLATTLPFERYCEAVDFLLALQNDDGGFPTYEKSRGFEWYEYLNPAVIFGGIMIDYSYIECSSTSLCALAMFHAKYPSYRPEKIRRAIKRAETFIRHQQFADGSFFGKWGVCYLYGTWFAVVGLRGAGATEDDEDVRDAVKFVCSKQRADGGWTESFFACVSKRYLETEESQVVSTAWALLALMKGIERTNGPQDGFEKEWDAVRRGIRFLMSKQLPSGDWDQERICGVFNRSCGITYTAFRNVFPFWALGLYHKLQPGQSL
Assay: GC-MS of silylated sterols after incubation with purified enzyme
Assay type: biochemical
Conditions: 50 mM sodium phosphate pH 7.4, 25°C, 24 h; 10.7 μg substrate, 37.5-112.5 μg protein

SMILES	GC-MS of silylated sterols after incubation with purified enzyme
CC(C)=CCC/C(C)=C/CC/C(C)=C/CC/C=C(\C)CC/C=C(\C)CC[C@@H]1OC1(C)C [2,3-oxidosqualene]	These experiments confirmed the specific conversion of OS into LA.
CC(C)=CCC[C@@H](C)[C@H]1CC[C@@]2(C)C3=C(CC[C@]12C)[C@@]1(C)CC[C@H](O)C(C)(C)[C@@H]1CC3 [lanosterol]	the proportion of LA increased linearly with increasing protein concentration
